Measurements from US20220348590A1, “CYCLOOXYGENASE-2 INHIBITORS AND USES THEREOF” (The Board Institute, Inc., priority 2019, published 2022).
Like-named read-outs stand apart in the source and are kept apart here.

How the values were obtained:
ovine COX-1 (oCOX-1) = target: T1, ovine COX-1 (oCOX-1) (Ovis aries, UniProt P05979); assay: LCMS-based COX-1 enzymatic inhibition assay (PGE2 quantification); assay type: biochemical
T1 construct: purchased Cayman Chemicals (Ann Arbor, Mich.)
T1 sequence (P05979 25-600): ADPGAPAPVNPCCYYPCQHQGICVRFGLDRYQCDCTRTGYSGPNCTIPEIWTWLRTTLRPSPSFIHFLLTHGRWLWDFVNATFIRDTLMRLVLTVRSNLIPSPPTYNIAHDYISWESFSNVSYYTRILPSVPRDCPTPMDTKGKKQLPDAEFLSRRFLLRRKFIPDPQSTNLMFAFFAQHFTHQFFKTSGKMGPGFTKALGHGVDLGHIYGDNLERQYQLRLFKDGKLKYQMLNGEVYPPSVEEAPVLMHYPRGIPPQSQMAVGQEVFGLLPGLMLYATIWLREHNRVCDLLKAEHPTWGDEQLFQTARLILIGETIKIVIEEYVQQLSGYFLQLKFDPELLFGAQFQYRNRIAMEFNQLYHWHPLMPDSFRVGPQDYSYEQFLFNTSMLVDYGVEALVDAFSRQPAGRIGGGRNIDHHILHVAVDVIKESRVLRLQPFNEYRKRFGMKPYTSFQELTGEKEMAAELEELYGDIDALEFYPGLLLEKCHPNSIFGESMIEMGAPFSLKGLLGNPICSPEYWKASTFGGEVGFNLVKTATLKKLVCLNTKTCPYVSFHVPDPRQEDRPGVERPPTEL
Method: We have adapted a previously reported cyclooxygenase enzymatic assay utilizing LCMS quantification of PGE2 as the product of COX-1 and COX2 catalyzed conversion of arachidonic acid to evaluate the binding properties of newly synthesized ligands [Cao, 2011]. These optimized and miniaturized (384-well plates) LCMS-based COX-1 and COX2 enzymatic assays enabled us to quickly evaluate newly synthesized ligands for COX2 binding affinity and selectivity vs COX-1. Using a shorter ligand-enzyme incubation time in the LCMS assay (2 minutes vs 10 minutes) also permitted us to prioritize ligands with faster binding kinetics. Considering the relatively slow on-rate kinetics of known coxibs, due to their 3-step binding mechanism [Marnett, 2009], we believe that optimizing this critical parameter will be key to the successful development of a COX2 PET tracer. Using these enzymatic assays, we have evaluated>200 newly synthesized ligands against COX2 and >20 ligands against COX-1. Another critical property necessary for a good PET radiotracer is to have low non-specific binding (NSB) to increase the free fraction and maximize the signal to noise ratio. This property can be evaluated using in-vitro protein binding assays, and we have now evaluated>50 newly synthesized ligands in mouse, rat and human plasma protein binding (PPB) assays as well as >15 ligands in a mouse brain protein binding (BPB) assay.
Ovine COX-1 (oCOX-1), ovine COX2 (oCOX2), human recombinant COX2 (hCOX2), arachidonic acid, PGE2, d4-PGD2, and […] (labeled with deuterium atoms at positions 3 and 4) were purchased from Cayman Chemicals (Ann Arbor, Mich.). The cofactors (−)epinephrine and hematin, and the COX inhibitors indomethacin, resveratrol and diclofenac were purchased from Sigma-Aldrich (St. Louis, Mo.). Celecoxib was purchased from 3B PharmaChem International (Wuhan, China). All organic solvents were HPLC grade or better and were purchased from Thermo Fisher (Hanover Park, Ill.). Formic acid was purchased from EMD Chemicals (San Diego, Calif.). Purified water was prepared by using a Millipore Milli-Q purification system (Millipore, Billerica, Mass.). All other chemicals and solvents were ACS reagent grade, unless stated otherwise.
In an Eppendorf tube, 146 μL of 100 mM Tris.HCl (pH 8.0) buffer, 2 μL of 100 μM hematin (co-factor) and 10 μL of 40 mM L-epinephrine (co-factor) were mixed at room temperature. Next, 20 μL of Tris.HCl (pH 8.0) buffer containing 0.2 μg COX2 or 0.1 μg COX-1 (approximately 1 unit of enzyme; 1 unit COX utilizes 1 nmol 02/mg/min at 37° C.) was added, and the solution was incubated at room temperature for 2 min. A 2 μL aliquot of the COX inhibitor in DMSO was added to the enzyme solution and preincubated at 37° C. for 10 min. Negative controls were identical except that 2 μL aliquots of DMSO without inhibitor were used instead.
Each COX reaction was initiated by adding 20 μL of arachidonic acid in Tris.HCl (pH 8.0) buffer to give a final concentration of 5 μM; and the reaction was terminated after 2 min by adding 20 μL of 2.0 M HCl. The surrogate standards d4-PGE2 and d4-PGD2 (10 μL aliquot of 50 ng/mL solution in methanol) were added to correct for errors or degradation during sample handling and for variation in injection volume or instrument response during LC-MS-MS. After 30 min, PGE2, PGD2 and their surrogate standards were extracted from each incubation mixture using 800 μL hexane/ethyl acetate (50:50, v/v). The organic phase was removed, evaporated to dryness, and reconstituted in 100 μL methanol/water (50:50, v/v) for analysis using LC-MS-MS.
The concentration of PGE2 in each sample was measured using LC-MS-MS, and the percent of COX inhibition by each test solution was determined by comparing the amount of PGE2 produced in the experiment with that produced in the negative control incubation. The formation of PGD2 was measured for quality control purposes, since the levels of PGD2 should be proportional to those of PGE2. […]

[1] = target: T2, human recombinant COX2 (hCOX2) (UniProt P35354); assay: LCMS-based COX2 enzymatic inhibition assay (PGE2 quantification); assay type: biochemical; set-up: COX2 2 minutes pge2/pge2d4 area ratio Avg; other: 2 minutes; readout pge2/pge2d4 area ratio; average; COX2 2 minutes pge2/pge2d4 area ratio Avg; LLE; average LLE; COX2 2 minutes pge2 area (counts) Avg; readout pge2 area (counts); other: 2 min; "ovine COX2 (oCOX2), human recombinant COX2 (hCOX2)"; settings: 2 minutes; for COX2 2 minutes pge2/pge2d4 area ratio Avg. LLE / COX2 2 minutes pge2 area (counts) Avg. LLE: average LLE; for IC50: average
T2 sequence (P35354 1-604): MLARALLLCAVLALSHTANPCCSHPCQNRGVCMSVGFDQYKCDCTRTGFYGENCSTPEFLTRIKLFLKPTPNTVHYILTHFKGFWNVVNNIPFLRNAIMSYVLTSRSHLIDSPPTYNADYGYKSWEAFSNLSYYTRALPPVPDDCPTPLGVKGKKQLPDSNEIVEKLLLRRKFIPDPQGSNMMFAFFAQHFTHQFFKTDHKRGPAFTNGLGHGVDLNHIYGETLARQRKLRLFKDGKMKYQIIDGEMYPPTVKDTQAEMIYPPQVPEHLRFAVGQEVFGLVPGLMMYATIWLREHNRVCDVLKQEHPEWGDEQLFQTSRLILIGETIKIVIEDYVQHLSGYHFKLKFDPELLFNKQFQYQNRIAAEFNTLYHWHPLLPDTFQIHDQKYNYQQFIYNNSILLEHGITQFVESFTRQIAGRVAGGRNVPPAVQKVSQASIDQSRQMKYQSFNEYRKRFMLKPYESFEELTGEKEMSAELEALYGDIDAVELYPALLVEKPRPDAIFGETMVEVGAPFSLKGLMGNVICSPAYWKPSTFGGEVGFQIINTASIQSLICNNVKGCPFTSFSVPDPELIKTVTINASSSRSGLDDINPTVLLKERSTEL
How it was run: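 PGE2 formed from arachidonic acid (final 5 μM, 2 min) was measured by LC-MS-MS against DMSO controls. Enzyme (oCOX-1 0.1 μg or hCOX2 0.2 μg) with hematin/epinephrine cofactors at pH 8.0 was given 10 min at 37 °C with compound first. Twelve-point curves run three times gave IC50.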

[2] = 10 minutes, pge2/pge2d4 area ratio, head of this section not shown, inferred
[3] = 10 minutes, readout pge2/pge2d4 area ratio, average, read-out: COX1 10 minutes pge2/pge2d4 area ratio Avg. IC50
[4] = readout pge2/pge2d4 area ratio, read-out: COX2 2 minutes pge2/pge2d4 area ratio Avg. IC50
[5] = readout pge2 area (counts), read-out: COX2 2 minutes pge2 area (counts) Avg. IC50
[6] = 10 minutes, pge2 area (counts), head of this section not shown, inferred
[7] = 10 minutes, pge2 area (counts), head of this section not shown, inferred, read-out: COX1 10 minutes pge2 area (counts) Avg. IC50
[8] = 10 minutes, readout pge2/pge2d4 area ratio, average LLE
[9] = 10 minutes, readout pge2 area (counts), average LLE
[10] = 10 minutes, readout pge2 area (counts), average, read-out: COX1 10 minutes pge2 area (counts) Avg. IC50

Row | Structure (SMILES) | COX1 10 minutes pge2/pge2d4 area ratio Avg. LLE (ovine COX-1 (oCOX-1); [2]) | IC50 (ovine COX-1 (oCOX-1); [3]) | COX2 2 minutes pge2/pge2d4 area ratio Avg. LLE ([1]; readout pge2/pge2d4 area ratio) | IC50 [1, 4] | COX2 2 minutes pge2 area (counts) Avg. LLE ([1]; readout pge2 area (counts)) | IC50 [1, 5] | COX1 10 minutes pge2 area (counts) Avg. LLE (ovine COX-1 (oCOX-1); [6]) | IC50 (ovine COX-1 (oCOX-1); [7]) | IC50 (ovine COX-1 (oCOX-1)) | COX1 10 minutes pge2/pge2d4 area ratio Avg. LLE (ovine COX-1 (oCOX-1); [8]) | COX1 10 minutes pge2 area (counts) Avg. LLE (ovine COX-1 (oCOX-1); [9]) | IC50 (ovine COX-1 (oCOX-1); [10])
1 | CS(=O)(=O)c1ccc(-c2cccc(NCc3cncs3)n2)cc1 [Compound 99] | 1.498 | 45900 nM | 4.286 | 77.9 nM | 4.248 | 86.9 nM | – | – | – | – | – | –
2 | CS(=O)(=O)c1ccc(-c2cccc(NCc3ccns3)n2)cc1 [Compound 87] | 1.97 | 42600 nM | 4.854 | 61.9 nM | 4.881 | 56.5 nM | 1.899 | 50200 nM | – | – | – | –
3 | CS(=O)(=O)c1ccc(-c2cncc(/C=C\c3cccs3)n2)cc1 [Compound 65] | 1.544 | – | 4.704 | 37 nM | 4.681 | 39 nM | 1.612 | 38000 nM | 52000 nM | – | – | –
4 | CSc1ccc(NCc2cccs2)nc1-c1ccc(S(C)(=O)=O)cc1 [Compound 20] | – | – | 3.9449 | 10.8 nM | 3.942 | 11.5 nM | – | – | 52000 nM | 0.214 | 0.214 | –
5 | CS(=O)(=O)c1ccc(-c2cc(F)cc(OCc3cccs3)n2)cc1 [Compound 6] | – | 2860 nM | 4.364 | 6.26 nM | 4.247 | 8.2 nM | – | – | – | 1.694 | 1.673 | 3000 nM
6 | C[C@H](Oc1cccc(-c2ccc(S(C)(=O)=O)cc2)n1)c1cccs1 (single isomer, unassigned) [Compound 46] | – | 50900 nM | 3.462 | 20.2 nM | 3.431 | 23.5 nM | – | – | – | 0.04315 | 0.2102 | 34700 nM
7 | CS(=O)(=O)c1ccc(-c2ccc3ccn(Cc4cccs4)c3n2)cc1 [Compound 31] | – | 2220 nM | 3.218 | 15.2 nM | 3.116 | 18.5 nM | – | – | – | 1.013 | 0.929 | 2710 nM
8 | CS(=O)(=O)c1ccc(-c2cnc3cnn(Cc4cccs4)c3n2)cc1 [Compound 94] | 2.552 | 10200 nM | 4.786 | 71 nM | 4.818 | 69.9 nM | 2.532 | 10700 nM | – | – | – | –
9 | CS(=O)(=O)c1ccc(-n2ccc3ccc(Nc4ccccc4)nc32)cc1 [Compound 72] | 0.2541 | 17600 nM | 2.94 | 41.4 nM | 2.995 | 34.2 nM | 0.02014 | 30200 nM | – | – | – | –
10 | CS(=O)(=O)c1ccc(-c2ccc3ccn(Cc4ccco4)c3n2)cc1 [Compound 61] | 0.214 | – | 3.446 | 33.3 nM | 3.403 | 37 nM | 0.214 | – | 52000 nM | – | – | –
11 | CS(=O)(=O)c1ccc(-n2ccc3ccc(NCc4cccs4)nc32)cc1 [Compound 57] | −0.196 | – | 3.1281 | 30.6 nM | 3.132 | 29.8 nM | −0.1826 | 50400 nM | 52000 nM | – | – | –
